This passage reports IC50 results from EP4752149A1, “OXYGEN-CONTAINING FUSED TRICYCLIC DERIVATIVE, AND PREPARATION METHOD THEREFOR AND USE THEREOF” (Tuojie Biotech (Shanghai) Co., Ltd., priority 2023, dated 2025).

Type in all cases: cell-based
For experiment [1], the system named is Triple-negative breast cancer cells (HCC1806). The experiment is described as follows: Inhibitory activity against triple-negative breast cancer cells (HCC1806), CTG cell viability. The note with it: 7 days with compound. On the procedure:
Triple-negative breast cancer cells (HCC1806, Nanjing Cobioer Biosciences Co., Ltd.) were cultured using an RPMI 1640 culture medium containing 10% FBS in a cell incubator (37 °C, 5% CO2). On day one, the cells were plated in a 384-well plate at a cell concentration of 200 cells/well and cultured overnight in an incubator. On day two, the cells were treated with compounds. The highest compound concentration was 10 µM and was diluted 3-fold to obtain 9 concentrations, and the final concentration of DMSO was 0.2%. After the cells were cultured in the incubator for another 7 days, the cell viability was tested using a CTG Cell Viability Detection Reagent (MCE); the testing method was consistent with the method provided by the kit. Data were processed using XLfit, and IC50 was calculated. [formula] X: the logarithm of the compound concentration; Y: inhibition%. Table 4. The IC50 (nM) of compounds of the present disclosure against HCC1806

Experiment [2] concerns Ovarian cancer cells (OVCAR3). The experiment is described as follows: Inhibitory activity against ovarian cancer cells (OVCAR3), CTG cell viability. The settings on record: Homo sapiens, OVCAR-3, 168 h, 7 days with compound. On the procedure:
Ovarian cancer cells (OVCAR3) were cultured using an RPMI 1640 culture medium containing 10% FBS in a cell incubator (37 °C, 5% CO2). On day one, the cells were plated in a 384-well plate at a cell concentration of 800 cells/well and cultured overnight in an incubator. On day two, the cells were treated with compounds. The highest compound concentration was 10 µM and was diluted 3-fold to obtain 9 concentrations, and the final concentration of DMSO was 0.1%. After the cells were cultured in the incubator for another 7 days, the cell viability was tested using a CTG Cell Viability Detection Reagent (MCE); the testing method was consistent with the method provided by the kit. Data were processed using GraphPad Prism 8, and IC50 was calculated. [formula] X: the logarithm of the compound concentration; Y: inhibition%. Table 2. The IC50 (nM) of compounds of the present disclosure against OVCAR3

For a further experiment, the system named is MCF-7/Palbo-R. The experiment can be described thus: Inhibitory activity against CDK4/6 inhibitor-resistant human breast cancer cells (MCF-7 palbociclib-resistant cell line), cell viability. The note with it: 5 days with compound, CellTiter-Glo cell viability. On the procedure:
MCF-7/Palbo-R cell source: MCF7 cells (Nanjing Cobioer Biosciences Co., Ltd.) were treated with 1 µM palbociclib for a long time, and drug resistance was induced.
The palbociclib-resistant breast cancer cell line MCF-7/Palbo-R was cultured using a DMEM culture medium containing 10% FBS in a cell incubator (37 °C, 5% CO2). On day one, the cells were plated in a 384-well plate at a cell concentration of 800 cells/well and cultured overnight in an incubator. On day two, the cells were treated with compounds. The highest compound concentration was 10 µM and was diluted 3-fold to obtain 9 concentrations, and the final concentration of DMSO was 0.2%. After the cells were cultured in the incubator for another 5 days, the cell viability was tested using a CellTiter-Glo luminescent cell viability assay kit; the testing method was consistent with the method provided by the kit. Data were processed using XLfit, and IC50 was calculated.
The inhibition rates (IR) of the test compounds were calculated using the following formula: IR (%) = (1 - (RLU compound - RLU blank control) / (RLU vehicle control-RLU blank control)) × 100%. Table 16. The IC50 (nM) of a compound of the present disclosure against MCF-7/Palbo-R
Background: Cellular ATP, detected with luciferase, serves as a proxy for viable cell number.

In experiment [3] the test system is Human prostate cancer cells (22RV1). The experiment is described as follows: Inhibitory activity against human prostate cancer cells (22RV1), CTG cell viability. The settings on record: 5 days with compound. On the procedure: (§1) Human prostate cancer cells (22RV1) were cultured using an RPMI 1640 culture medium containing 10% FBS in a cell incubator (37 °C, 5% CO2). On day one, the cells were plated in a 384-well plate at a cell concentration of 500 cells/well and cultured overnight in an incubator. On day two, the cells were treated with compounds. The highest compound concentration was 10 µM and was diluted 3-fold to obtain 9 concentrations, and the final concentration of DMSO was 0.2%. After the cells were cultured in the incubator for another 5 days, the cell viability was tested using a CTG Cell Viability Detection Reagent; the testing method was consistent with the method provided by the kit. Data were processed using XLFit, and IC50 was calculated. [formula] X: the logarithm of the compound concentration; Y: % inhibition. Table 12. The IC50 (nM) of a compound of the present disclosure against 22RV1

For experiment [4], the system named is Human breast cancer cells (MDA-MB-231). The experiment is described as follows: Inhibitory activity against human breast cancer cells (MDA-MB-231), CTG cell viability. The note with it: 7 days with compound. On the procedure: (§2) Human breast cancer cells (MDA-MB-231) were cultured using a DMEM culture medium containing 10% FBS in a cell incubator (37 °C, 5% CO2). On day one, the cells were plated in a 384-well plate at a cell concentration of 600 cells/well and cultured overnight in an incubator. On day two, the cells were treated with compounds. The highest compound concentration was 10 µM and was diluted 3-fold to obtain 9 concentrations, and the final concentration of DMSO was 0.2%. After the cells were cultured in the incubator for another 7 days, the cell viability was tested using a CTG Cell Viability Detection Reagent; the testing method was consistent with the method provided by the kit. Data were processed using XLFit, and IC50 was calculated. [formula] X: the logarithm of the compound concentration; Y: % inhibition. Table 8. The IC50 (nM) of a compound of the present disclosure against MDA-MB-231

Experiment [5] concerns Human breast cancer cells (SUM-149PT). The experiment is described as follows: Inhibitory activity against human breast cancer cells (SUM-149PT), CTG cell viability. The settings on record: 5 days with compound. On the procedure:
as §2, with “cells (SUM-149PT)” for “cells (MDA-MB-231)”, “of 800” for “of 600”, “another 5” for “another 7”, “Table 14.” for “Table 8.”, “against SUM-149PT” for “against MDA-MB-231”

Experiment [6] concerns Human non-small cell lung cancer cells (A549). The experiment is described as follows: Inhibitory activity against human non-small cell lung cancer cells (A549), CTG cell viability. The settings on record: 5 days with compound. On the procedure:
as §1, with “non-small cell lung” for “prostate”, “(A549)” for “(22RV1)”, “F12K” for “RPMI 1640”, “300” for “500”, “10.” for “12.”, “A549” for “22RV1”

As usually defined, the IC50 is the midpoint of a concentration-inhibition curve.

As for `CNC(=O)c1ccc(Nc2ncc(F)c(-c3cc(F)c4nc(C(C)(C)O)n5c4c3OC[C@@H]5C)n2)cc1` [Example 3, (S)-4-((5-Fluoro-4-(8-fluoro-2-(2-hydroxypropan-2-yl)-3-methyl-3,4-dihydro-5-oxa-1,2a-diazaacenaphthylen-6-yl)pyrimidin-2-yl)amino)-N-methylbenzamide], the IC50 in experiment [1] (Homo sapiens, 168 h) was determined as 172 nM; in experiment [2], 197 nM.
Turning to `C[C@H]1COc2c(-c3nc(Nc4ccc(N5CCOCC5=O)cc4F)ncc3F)cc(F)c3nc(C(C)(C)O)n1c23` [Example 4, (S)-4-(3-Fluoro-4-((5-fluoro-4-(8-fluoro-2-(2-hydroxypropan-2-yl)-3-methyl-3,4-dihydro-5-oxa-1,2a-diazaacenaphthylen-6-yl)pyrimidin-2-yl)amino)phenyl)morpholin-3-one], the IC50 worked out at 278 nM in experiment [1] (Homo sapiens, 168 h) and 348 nM in experiment [2].
The corresponding values for `CNS(=O)(=O)c1ccc(Nc2ncc(Cl)c(-c3cc(F)c4nc(C(C)(C)O)n5c4c3OC[C@@H]5C)n2)c(F)c1` [Example 7, (S)-4-((5-Chloro-4-(8-fluoro-2-(2-hydroxypropan-2-yl)-3-methyl-3,4-dihydro-5-oxa-1,2a-diazaacenaphthylen-6-yl)pyrimidin-2-yl)amino)-3-fluoro-N-methylbenzenesulfonamide] are 342 nM and 670 nM.
The corresponding values for `COC(C)c1nc2c(F)cc(-c3nc(Nc4ccc(N5CCOCC5=O)cc4F)ncc3F)c3c2n1[C@@H](C)CO3` (stereo partly drawn) [Example 22, 4-(3-Fluoro-4-((5-fluoro-4-((3S)-8-fluoro-2-(1-methoxyethyl)-3-methyl-3,4-dihydro-5-oxa-1,2a-diazaacenaphthylen-6-yl)pyrimidin-2-yl)amino)phenyl)morpholin-3-one] are 406 nM and 825 nM.
As for `C[C@H]1COc2c(-c3nc(Nc4ccc(N5CCNCC5=O)cc4F)ncc3Cl)cc(F)c3nc(C(C)(C)O)n1c23` [Example 23, (S)-1-(4-((5-Chloro-4-(8-fluoro-2-(2-hydroxypropan-2-yl)-3-methyl-3,4-dihydro-5-oxa-1,2a-diazaacenaphthylen-6-yl)pyrimidin-2-yl)amino)3-fluorophenyl)piperazin-2-one], the IC50 in experiment [1] (Homo sapiens, 168 h) stood at 386 nM.
As to `CC(C)c1nc2c(F)cc(-c3nc(Nc4ccc(N5CCOCC5=O)cc4F)ncc3F)c3c2n1[C@@H](C)CO3` [Example 27, (S)-4-(3-Fluoro-4-((5-fluoro-4-(8-fluoro-2-isopropyl-3-methyl-3,4-dihydro-5-oxa-1,2a-diazaacenaphthylen-6-yl)pyrimidin-2-yl)amino)phenyl)morpholin-3-one], the IC50 in experiment [1] (Homo sapiens, 168 h) came to 303 nM; in experiment [2], 572 nM.
Turning to `C[C@H]1COc2c(-c3nc(Nc4ccc(C(=O)N5CC[C@H](N(C)C)C5)cc4)ncc3Cl)cc(F)c3nc(C(C)(C)O)n1c23` [Example 40, (4-((5-Chloro-4-((S)-8-fluoro-2-(2-hydroxypropan-2-yl)-3-methyl-3,4-dihydro-5-oxa-1,2a-diazaacenaphthylen-6-yl)pyrimidin-2-yl)amino)phenyl)((S)-3-(dimethylamino)pyrrolidin-1-yl)methanone], the IC50 in experiment [2] turned out to be 364 nM.
On to `C[C@H]1COc2c(-c3nc(Nc4ccc(C(=O)N5CC[C@@H](N(C)C)C5)cc4)ncc3Cl)cc(F)c3nc(C(C)(C)O)n1c23` [Example 42, (4-((5-Chloro-4-((S)-8-fluoro-2-(2-hydroxypropan-2-yl)-3-methyl-3,4-dihydro-5-oxa-1,2a-diazaacenaphthylen-6-yl)pyrimidin-2-yl)amino)phenyl)((R)-3-(dimethylamino)pyrrolidin-1-yl)methanone], for which the IC50 in experiment [2] came to 674 nM.
Consider `C[C@H]1COc2c(-c3nc(Nc4ccc(N5CCOCC5=O)cc4F)ncc3Cl)cc(F)c3nc(C4(O)CCCC4)n1c23` [Example 44, (S)-4-(4-((5-Chloro-4-(8-fluoro-2-(1-hydroxycyclopentyl)-3-methyl-3,4-dihydro-5-oxa-1,2a-diazaacenaphthylen-6-yl)pyrimidin-2-yl)amino)-3-fluorophenyl)morpholin-3-one], for which the half-inhibitory concentration (IC50) is 199 nM in experiment [1] (Homo sapiens, 168 h) and 574 nM in experiment [2].
For `COCc1cc(C(=O)Nc2cc([C@H]3CC[C@@H](OC(=O)NC(C)C)C3)[nH]n2)n(C)n1` [PF-07104091, reference compound], the IC50 was found to be 836 nM with MCF-7/Palbo-R; 936 nM in experiment [1]; 2700 nM in experiment [3]; 1250 nM in experiment [4]; 1340 nM in experiment [5]; 1130 nM in experiment [6].
On to `CC(C)n1c(C(C)(C)O)nc2c(F)cc(-c3nc(N[C@@H]4CCOC[C@H]4O)ncc3Cl)cc21` [PF-07220060], for which the concentration for half-maximal inhibition (IC50) in the experiment with MCF-7/Palbo-R worked out at 967 nM; in experiment [1], 1590 nM; in experiment [4], 567 nM; in experiment [6], 1870 nM.
Regarding `CC(=O)c1c(C)c2cnc(Nc3ccc(N4CCNCC4)cn3)nc2n(C2CCCC2)c1=O` [Palbociclib], in the experiment with MCF-7/Palbo-R (Homo sapiens, MCF7, 120 h), the IC50 was more than 2000 nM.
